Values joined by “and” are separate entries in the source; they are usually repeats but may differ in a detail not shown here. Equal entries are not always repeated.
Test system: T-47D spheroids with HUVEC/MSC, viability
Experiment: Anticancer human tumor T-47D cell line growth inhibition [PI3K];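 further: spheroids exposed to agents for seven days before reading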;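 on viability, T/C: percent of DMSO vehicle control luminescence so 100% = untreated growth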
Conditions: for viability, T/C: stronger effect = lower value
How it was run: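 Spheroid viability read-out. Co-cultures contained the tumor line plus HUVEC and human MSCs. Each agent was paired with a PI3K inhibitor (inavolisib, alpelisib, duvelisib, copanlisib) across half-log dilutions starting at clinical Cmax, or at 10 microM when Cmax was unknown.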

## Cc1nc(NC(=O)N2CCCC2C(N)=O)sc1-c1ccnc(C(C)(C)C(F)(F)F)c1 (centres undefined)
Compound 0.0316 µM
  viability, T/C: 97.8% [middle of 8 runs]
Compound 0.1 µM
  viability, T/C: 96.2% [middle of 8 runs]
Compound 1 µM
  viability, T/C: 97.6% [middle of 8 runs]
Compound 3.16 µM
  viability, T/C: 77% [middle of 7 runs]
Compound 10 µM
  viability, T/C: 39.9% [middle of 8 runs]
Compound alone, run of 04/24/2023
  IC50: 7.37 µM [middle of 8 runs]

## CC(C)n1nc(-c2ccc3oc(N)nc3c2)c2c(N)ncnc21 + Cc1nc(NC(=O)N2CCCC2C(N)=O)sc1-c1ccnc(C(C)(C)C(F)(F)F)c1
Curve of first compound, second compound 0.0316 µM
  IC50: 0.0726 µM
Curve of first compound, second compound 0.1 µM
  IC50: 0.0608 µM
Curve of first compound, second compound 0.316 µM
  IC50: 0.0525 µM
Curve of first compound, second compound 1 µM
  IC50: 0.0267 µM
Curve of first compound, second compound 3.16 µM
  IC50: 0.00907 µM
Curve of first compound, second compound 10 µM
  IC50: < 0.000316 µM
Second compound 0.0316 µM, first compound 0.000316 µM
  viability, T/C: 106%
Second compound 0.0316 µM, first compound 0.001 µM
  viability, T/C: 94.2%
Second compound 0.0316 µM, first compound 0.00316 µM
  viability, T/C: 95.9%
Second compound 0.0316 µM, first compound 0.01 µM
  viability, T/C: 95.9%
Second compound 0.0316 µM, first compound 0.0316 µM
  viability, T/C: 78.8%
Second compound 0.0316 µM, first compound 0.1 µM
  viability, T/C: 38.7%
Second compound 0.1 µM, first compound 0.000316 µM
  viability, T/C: 110%
Second compound 0.1 µM, first compound 0.001 µM
  viability, T/C: 87.2%
Second compound 0.1 µM, first compound 0.00316 µM
  viability, T/C: 99.3%
Second compound 0.1 µM, first compound 0.01 µM
  viability, T/C: 109%
Second compound 0.1 µM, first compound 0.0316 µM
  viability, T/C: 79%
Second compound 0.1 µM, first compound 0.1 µM
  viability, T/C: 27.9%
Second compound 0.316 µM, first compound 0.000316 µM
  viability, T/C: 101%
Second compound 0.316 µM, first compound 0.001 µM
  viability, T/C: 98.9%
Second compound 0.316 µM, first compound 0.00316 µM
  viability, T/C: 82.3%
Second compound 0.316 µM, first compound 0.01 µM
  viability, T/C: 92.7%
Second compound 0.316 µM, first compound 0.0316 µM
  viability, T/C: 67.4%
Second compound 0.316 µM, first compound 0.1 µM
  viability, T/C: 26.9%
Second compound 1 µM, first compound 0.000316 µM
  viability, T/C: 89%
Second compound 1 µM, first compound 0.001 µM
  viability, T/C: 93.2%
Second compound 1 µM, first compound 0.00316 µM
  viability, T/C: 86.3%
Second compound 1 µM, first compound 0.01 µM
  viability, T/C: 70.7%
Second compound 1 µM, first compound 0.0316 µM
  viability, T/C: 47%
Second compound 1 µM, first compound 0.1 µM
  viability, T/C: 21.2%
Second compound 3.16 µM, first compound 0.000316 µM
  viability, T/C: 62.9%
Second compound 3.16 µM, first compound 0.001 µM
  viability, T/C: 68.3%
Second compound 3.16 µM, first compound 0.00316 µM
  viability, T/C: 64.6%
Second compound 3.16 µM, first compound 0.01 µM
  viability, T/C: 42.7%
Second compound 3.16 µM, first compound 0.0316 µM
  viability, T/C: 33.1%
Second compound 3.16 µM, first compound 0.1 µM
  viability, T/C: 6.08%
Second compound 10 µM, first compound 0.000316 µM
  viability, T/C: 37.5%
Second compound 10 µM, first compound 0.001 µM
  viability, T/C: 40.2%
Second compound 10 µM, first compound 0.00316 µM
  viability, T/C: 33.1%
Second compound 10 µM, first compound 0.01 µM
  viability, T/C: 21.7%
Second compound 10 µM, first compound 0.0316 µM
  viability, T/C: 12.8%
Second compound 10 µM, first compound 0.1 µM
  viability, T/C: 2.67%

## Cn1nccc1Nc1nccc(-c2ccn(C(CO)c3ccc(Cl)c(F)c3)c(=O)c2)n1 (centres undefined)
Compound 0.0316 µM
  viability, T/C: 103% [middle of 4 runs]
Compound 0.1 µM
  viability, T/C: 93.2% [middle of 4 runs]
Compound 0.316 µM
  viability, T/C: 105% [middle of 4 runs]
Compound 3.16 µM
  viability, T/C: 99.5% [middle of 4 runs]
Compound 10 µM
  viability, T/C: 82.5% and 92.7% and 101% (2×)
Curve of compound
  IC50: > 10 µM

From PubChem BioAssay AID1963959 (Molecular Pharmacology Branch, DTP, NCI, 2024)
